Laboratory results reported in EP4782448A1, “SUBSTITUTED PYRIDOTRIAZOLE COMPOUND, AND PREPARATION METHOD THEREFOR AND USE THEREOF” (Origiant Pharmaceutical Co., Ltd., priority 2023, dated 2025).

tested on: HT-29 cells; assay: In vitro assay for protection of HT-29 cells from necroptosis (TNFα/Smac mimetic/Z-VAD-FMK induction, CCK8 readout); type: cell-based; conditions: TNFα/Smac mimetic/Z-VAD-FMK for 24 h; inhibition of necroptosis; read-out: HT-29 (EC50)

SMILES	EC50 [nM]
C[C@H](NC(=O)c1cn(C)c2ccc(-c3ccn4nc(NC(=O)[C@H]5CCCO5)nc4c3)cc12)c1cccc(F)c1 [Compound 119]	< 1
C[C@H](NC(=O)c1cn(C)c2ccc(-c3ccn4nc(NC(=O)CN5CCCC(CO)C5)nc4c3)cc12)c1ccc(F)cc1 (stereo partly shown) [Compound 44]	1 to 10
C[C@H](NC(=O)c1cn(C)c2ccc(-c3ccn4nc(NC(=O)CNC5CCOC5)nc4c3)cc12)c1ccc(F)cc1 (stereo partly shown) [Compound 77]	< 1
C[C@H](NC(=O)c1cn(C)c2ccc(-c3ccn4nc(NC(=O)C5CC5F)nc4c3)cc12)C(C)(C)C (stereo partly shown) [Compound 92]	100 to 1000
C[C@H](NC(=O)c1cn(C)c2ccc(-c3ccn4nc(N5CCOCC5)nc4c3)cc12)c1ccc(F)cc1 [Compound 219]	1 to 10
Cn1cc(C(=O)N2CCC[C@H]2c2ccc(F)cc2)c2cc(-c3ccn4nc(NC(=O)C5CCOC5)nc4c3)ccc21 (stereo partly shown) [Compound 186]	< 1
C[C@H](NC(=O)c1cn(C)c2ccc(-c3ccn4nc(NC(=O)CN5CCOCC5=O)nc4c3)cc12)c1ccc(F)cc1 [Compound 16]	10 to 100
CN1CC[C@@H](C(=O)Nc2nc3cc(-c4ccc5c(c4)c(C(=O)N[C@@H](CF)c4ccc(F)cc4)cn5C)ccn3n2)C1 [Compound 100]	< 1
C[C@H](NC(=O)c1cn(C)c2ccc(-c3ccn4nc(NC(=O)Cn5cncn5)nc4c3)cc12)c1ccc(F)cc1 [Compound 57]	10 to 100
Cn1cc(C(=O)N[C@H]2CCCc3ccc(F)cc32)c2cc(-c3ccn4nc(NC(=O)[C@H]5CCCO5)nc4c3)ccc21 [Compound 146]	10 to 100
COCCn1cc(C(=O)N[C@@H](CF)c2ccc(F)cc2)c2cc(-c3ccn4nc(NC(=O)N5CCOCC5)nc4c3)ccc21 [Compound 214]	10 to 100
CC(c1ccc(F)cc1)n1cnc(-c2cn(C)c3ccc(-c4ccn5nc(NC(=O)c6cnn(C)c6)nc5c4)cc23)n1 (stereo not shown) [Compound 208]	100 to 1000
CC(C(=O)Nc1nn(C)c2ccc(-c3ccn4nc(NC(=O)CN(C)C)nc4c3)cc12)c1ccc(F)cc1 (stereo not shown) [Compound 180]	1000 to 10000
Cn1cc(C(=O)N2CC(F)(F)CC2c2ccc(F)cc2)c2cc(-c3ccn4nc(NC(=O)C5CC5)nc4c3)ccc21 (stereo not shown) [Compound 158]	1000 to 10000
Cn1cc(C2=NC(c3ccc(F)cc3)CO2)c2cc(-c3ccn4nc(NC(=O)C5CC5F)nc4c3)ccc21 (stereo not shown) [Compound 211]	10 to 100
Cn1cc(C(=O)N[C@@H](CF)c2ccc(F)cc2)c2cc(-c3ccn4nc(NC(=O)C5CC5(F)F)nc4c3)ccc21 (stereo partly shown) [Compound 110]	< 1
C[C@H](NC(=O)c1cn(C)c2ccc(-c3ccn4nc(NC(=O)CC5CCCCC5)nc4c3)cc12)c1ccc(F)cc1 [Compound 13]	< 1
Cn1cc(C(=O)Nc2nc3cc(-c4ccc5c(c4)c(C(=O)N[C@@H](CF)c4cccc(F)c4)cn5C)ccn3n2)cn1 [Compound 155]	< 1
Cn1cc(C(=O)Nc2nc3cc(-c4ccc5c(c4)c(C(=O)N4N=CCC4c4ccc(F)cc4)cn5C)ccn3n2)cn1 (stereo not shown) [Compound 171]	1 to 10
C[C@H](NC(=O)c1cn(C)c2ccc(-c3ccn4nc(NC(=O)CN5CCOCC5)nc4c3)cc12)c1ccc(Cl)cc1 [Compound 83]	< 1
Cn1cc(C(=O)N[C@@H](CF)c2ccc(F)cc2)c2cc(-c3ccn4nc(NC(=O)C5CC5F)nc4c3)ccc21 (stereo partly shown) [Compound 113]	1 to 10
Cn1cc(C(=O)N[C@@H](CF)c2ccc(F)cc2)c2cc(-c3ccn4nc(NC(=O)C5CC5)nc4c3)ccc21 [Compound 114]	< 1

SMILES	EC50 [nM]
CCOC(=O)C(=O)Nc1nc2cc(-c3ccc4c(c3)c(C(=O)N[C@@H](C)c3ccc(F)cc3)cn4C)ccn2n1 [Compound 10]	1 to 10
C[C@H](NC(=O)c1cn(C)c2ccc(-c3ccn4nc(NC(=O)CN5CCOC[C@H]5C)nc4c3)cc12)c1ccc(F)cc1 [Compound 72]	< 1
Cn1cc(C(=O)N2N=CCC2c2ccc(F)cc2)c2cc(-c3ccn4nc(NC(=O)C5CC5)nc4c3)ccc21 (stereo not shown) [Compound 170]	< 1
CC(C)Nc1nc2cc(-c3ccc4c(c3)c(C(=O)N[C@@H](CF)c3ccc(F)cc3)cn4C)ccn2n1 [Compound 99]	< 1
CC1CN(CC(=O)Nc2nc3cc(-c4ccc5c(c4)c(C(=O)N[C@@H](C)c4ccc(F)cc4)cn5C)ccn3n2)CCO1 (stereo partly shown) [Compound 45]	< 1
C[C@H](NC(=O)c1cn(C)c2ccc(-c3ccn4nc(NC(=O)C(N)=O)nc4c3)cc12)c1ccc(F)cc1 [Compound 11]	1 to 10
CCOC(=O)Nc1nc2cc(-c3ccc4c(c3)c(C(=O)N[C@@H](C)c3ccc(F)cc3)cn4C)ccn2n1 [Compound 17]	< 1
Cn1cc(C(=O)Nc2nc3cc(-c4ccc5c(c4)c(C(=O)N[C@H]4CCCc6cc(F)ccc64)cn5C)ccn3n2)cn1 [Compound 141]	1 to 10
C[C@H](NC(=O)c1cn(C)c2ccc(-c3ccn4nc(NC(=O)CN5CCC(F)(F)CC5)nc4c3)cc12)c1ccc(F)cc1 [Compound 47]	< 1
C[C@H](NC(=O)c1cn(C)c2ccc(-c3ccn4nc(NC(=O)C5CC5)nc4c3)cc12)C(C)(C)C [Compound 93]	100 to 1000
C[C@H](NC(=O)c1cn(C)c2ccc(-c3ccn4nc(NC(=O)N5CCOCC5)nc4c3)cc12)c1ccc(F)cc1 [Compound 116]	< 1
CC(C(=O)Nc1nn(C)c2ccc(-c3ccn4nc(NC(=O)c5cnn(C)c5)nc4c3)cc12)c1ccc(F)cc1 (stereo not shown) [Compound 181]	1000 to 10000
C[C@H](NC(=O)c1cn(C)c2ccc(-c3ccn4nc(NC(=O)CN5CC[C@@H](CO)C5)nc4c3)cc12)c1ccc(F)cc1 [Compound 62]	< 1
C[C@H](NC(=O)c1cn(C)c2ccc(-c3ccn4nc(NC(=O)CN5CCN(CCO)CC5)nc4c3)cc12)c1ccc(F)cc1 [Compound 70]	< 1
C[C@H](NC(=O)c1cn(C)c2ccc(-c3ccn4nc(NC(=O)CN5CCOC[C@H]5C)nc4c3)cc12)c1ccc(Cl)cc1 [Compound 81]	< 1
Cn1cc(C(=O)N2CC(F)(F)CC2c2ccc(F)cc2)c2cc(-c3ccn4nc(NC(=O)C5CCOC5)nc4c3)ccc21 (stereo not shown) [Compound 159]	< 1
C[C@H](NC(=O)c1cn(C)c2ccc(-c3ccn4nc(NC(=O)CN5CCN(C(=O)C6CC6)CC5)nc4c3)cc12)c1ccc(F)cc1 [Compound 50]	< 1
C[C@H](NC(=O)c1nn(C)c2ccc(-c3ccn4nc(NC(=O)[C@H]5CCCO5)nc4c3)cc12)c1ccc(F)cc1 [Compound 193]	< 1
C[C@H](NC(=O)c1cn(C)c2ccc(-c3ccn4nc(NC(=O)CN5CC[C@H](F)C5)nc4c3)cc12)c1ccc(F)cc1 [Compound 21]	< 1
CC(=O)N1CCN(CC(=O)Nc2nc3cc(-c4ccc5c(c4)c(C(=O)N[C@@H](C)c4ccc(F)cc4)cn5C)ccn3n2)CC1 [Compound 53]	< 1
C[C@H](NC(=O)c1cn(C)c2ccc(-c3ccn4nc(NC(=O)CN5CCC(O)(O)CC5)nc4c3)cc12)c1ccc(F)cc1 [Compound 5]	< 1
COC(C)C(=O)Nc1nc2cc(-c3ccc4c(c3)c(C(=O)N[C@@H](CF)c3ccc(F)cc3)cn4C)ccn2n1 (stereo partly shown) [Compound 112]	< 1

SMILES	EC50 [nM]
C[C@H](NC(=O)c1cn(C)c2ccc(-c3ccn4nc(NC5CCOC5)nc4c3)cc12)c1ccc(F)cc1 (stereo partly shown) [Compound 107]	< 1
Cn1cc(C(=O)Nc2nc3cc(-c4ccc5c(c4)c(C(=O)N[C@@H](CF)c4ccc(F)cc4)cn5C)ccn3n2)cn1 [Compound 111]	1 to 10
CC(=O)Nc1nc2cc(-c3ccc4c(c3)c(C(=O)N[C@H]3CCc5cc(C#N)ccc53)cn4C)ccn2n1 [Compound 132]	100 to 1000
COCC(=O)Nc1nc2cc(-c3ccc4c(c3)c(C(=O)N[C@H](c3ccc(F)cc3)C(F)F)cn4C)ccn2n1 [Compound 166]	< 1
C[C@H](NC(=O)c1cn(C)c2ccc(-c3ccn4nc(NC(=O)CN5CCC(C#N)CC5)nc4c3)cc12)c1ccc(F)cc1 [Compound 23]	< 1
Cn1cc(C(=O)N[C@H](c2ccc(F)cc2)C(F)F)c2cc(-c3ccn4nc(NC(=O)CN5CCCCC5)nc4c3)ccc21 [Compound 163]	< 1
COC1CCN(CC(=O)Nc2nc3cc(-c4ccc5c(c4)c(C(=O)N[C@@H](C)c4ccc(F)cc4)cn5C)ccn3n2)CC1 [Compound 24]	< 1
CC(=O)Nc1nc2cc(-c3ccc4c(c3)c(C(=O)N[C@H]3CCCc5ccc(F)cc53)cn4C)ccn2n1 [Compound 145]	1 to 10
C[C@H](NC(=O)c1cn(C)c2ccc(-c3ccn4nc(NC(=O)CN5CCCOCC5)nc4c3)cc12)c1ccc(F)cc1 [Compound 30]	< 1
C[C@H](NC(=O)c1cn(C)c2ccc(-c3ccn4nc(NC(=O)c5cnn(C)c5)nc4c3)cc12)c1cccc(F)c1 [Compound 120]	< 1
Cn1cc(C(=O)N2CCC[C@H]2c2ccc(F)cc2)c2cc(-c3ccn4nc(NC(=O)C5CCCO5)nc4c3)ccc21 (stereo partly shown) [Compound 154]	< 1
C[C@H](NC(=O)c1cn(C)c2ccc(-c3ccn4nc(NC(=O)CN5CC6CC5CO6)nc4c3)cc12)c1ccc(Cl)cc1 (stereo partly shown) [Compound 79]	< 1
Cn1cc(C(=O)N[C@@H](CF)c2cccc(F)c2)c2cc(-c3ccn4nc(NC(=O)[C@H]5CCCO5)nc4c3)ccc21 [Compound 183]	< 1
C[C@H](NC(=O)c1cn(C)c2ccc(-c3ccn4nc(NC(=O)C5(C(=O)O)CC5)nc4c3)cc12)c1ccc(F)cc1 [Compound 31]	10 to 100
C[C@H](NC(=O)c1cn(C)c2ccc(-c3ccn4nc(NC(=O)CN5CCN(C(=O)OC(C)(C)C)C[C@H]5C)nc4c3)cc12)c1ccc(F)cc1 [Compound 64]	< 1
C[C@H](NC(=O)c1cn(C)c2ccc(-c3ccn4nc(NC(=O)CN5CCOCC5)nc4c3)cc12)C(C)(C)C [Compound 90]	1000 to 10000
CC(C(=O)Nc1nc2cc(-c3ccc4c(c3)c(C(=O)N[C@@H](C)c3ccc(F)cc3)cn4C)ccn2n1)N1CC[C@H](O)C1 (stereo partly shown) [Compound 1]	10 to 100
C[C@H](NC(=O)c1cn(C)c2ccc(-c3ccn4nc(NC(=O)Cn5cccn5)nc4c3)cc12)c1ccc(F)cc1 [Compound 58]	< 1
Cn1cc(C(=O)N[C@H](c2ccc(F)cc2)C(F)F)c2cc(-c3ccn4nc(NC(=O)CC#N)nc4c3)ccc21 [Compound 164]	< 1
Cn1cc(C(=O)N[C@H]2CCCc3cc(F)ccc32)c2cc(-c3ccn4nc(NC(=O)CC#N)nc4c3)ccc21 [Compound 142]	10 to 100
